Test systems include NCI-H522; ACHN; NCI-H226; SR; SF-539; SK-OV-3; RPMI-8226; SNB-75; HL-60; A549; NCI-H23; HCT-116; RXF 393; SK-MEL-28; UACC-257; U-251; OVCAR-8; TK-10.
Common to all, as to assay: inhibition of tumour cell growth, NCI panel, 48 h

Molecules are shown by their SMILES.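 Five concentrations, 48 hours, 96-well plates. Abbreviation: GI50, concentration required for 50% inhibition of growth.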 The source made the active and inactive calls. Cut-off read from the data, not from the text of the source: active = GI50 up to about 1.1 µM and inactive = higher. Some results are limits rather than exact numbers.

Regarding `CCN(CC)c1ccc(C(=C2C=CC(=[N+](CC)CC)C=C2)c2ccccc2)cc1`, the GI50 with NCI-H522 was 0.0177 µM (active); with ACHN, 0.0313 µM (active); in the assay with NCI-H226 it was 0.023 µM (active); with SR, 0.0224 µM (active); in the assay with SF-539 it was 0.0462 µM (active); in the assay with SK-OV-3 it was 0.0304 µM (active). The GI50 was < 0.01 µM (active) in the assay with RPMI-8226; 0.0586 µM (active) in the assay with SNB-75; < 0.01 µM (active) in the assay with HL-60; 0.0348 µM (active) with A549; 0.0283 µM (active) in the assay with NCI-H23; 0.0324 µM (active) in the assay with HCT-116. The GI50 was 0.022 µM (active) in the assay on RXF 393, 0.0537 µM (active) in the assay with SK-MEL-28, 0.0472 µM (active) with UACC-257 and 0.0234 µM (active) with U-251.
As to `Cc1cc(N(CCC#N)S(C)(=O)=O)ccc1C=O`, the GI50 in the assay on NCI-H522, in the assay on ACHN, in the assay on NCI-H226, in the assay on SR, with SF-539 and with SK-OV-3 was > 100 µM (inactive) throughout. Further, the GI50 in the assay on RPMI-8226, in the assay with SNB-75, in the assay with HL-60, in the assay with A549, in the assay with NCI-H23 and with HCT-116 was > 100 µM (inactive) each time. Besides, the GI50 in the assay with RXF 393, in the assay with SK-MEL-28, in the assay with UACC-257, in the assay with OVCAR-8 and in the assay on U-251 was > 100 µM (inactive) in each case.
Regarding `CCC(=O)Nc1nc2c(ncn2C2OC(COC(=O)CC)C(OC(=O)CC)C2OC(=O)CC)c(=O)[nH]1` (configuration not stated), the GI50 with NCI-H522, with ACHN, in the assay on NCI-H226, with SR, with SF-539 and with SK-OV-3 was > 100 µM (inactive) in each case. Also, the GI50 was > 100 µM (inactive) in the assay on RPMI-8226; > 100 µM (inactive) with SNB-75; 46.6 µM (inactive) with HL-60; > 100 µM (inactive) with A549; > 100 µM (inactive) in the assay on HCT-116; > 100 µM (inactive) in the assay with RXF 393. Further, the GI50 in the assay with SK-MEL-28, in the assay with UACC-257, with OVCAR-8 and in the assay on U-251 was > 100 µM (inactive) each time.
For the molecule `O=c1c2cc(Br)ccc2[nH]c(=S)n1-c1ccc(Br)cc1`, the GI50 in the assay with NCI-H522 was > 100 µM (inactive); with ACHN it was > 100 µM (inactive); in the assay with NCI-H226 it was > 100 µM (inactive); in the assay on SR, > 100 µM (inactive); with SF-539, 97.1 µM (inactive); with RPMI-8226, > 100 µM (inactive). Besides, the GI50 in the assay with SNB-75 was 12.1 µM (inactive); with HL-60 it was > 100 µM (inactive); in the assay with A549, > 100 µM (inactive); in the assay on NCI-H23, > 100 µM (inactive); in the assay with HCT-116 it was 89.7 µM (inactive); in the assay with RXF 393, > 100 µM (inactive). Further, the GI50 is > 100 µM (inactive) with SK-MEL-28; > 100 µM (inactive) in the assay with TK-10; > 100 µM (inactive) in the assay with UACC-257; 31 µM (inactive) in the assay with OVCAR-8; 47.3 µM (inactive) in the assay with U-251.
On to `c1cc(-c2cn[nH]c2)cc(-c2cn[nH]c2)c1`, for which the GI50 in the assay with NCI-H522 is 27.2 µM (inactive); in the assay with SR it was 31.8 µM (inactive); in the assay with SF-539, 17.9 µM (inactive); in the assay with SK-OV-3 it was 8.55 µM (inactive); in the assay on RPMI-8226 it was 32.7 µM (inactive); in the assay on SNB-75, 6.76 µM (inactive). Moreover, the GI50 in the assay with HL-60 is 30.9 µM (inactive); in the assay with A549, 20.1 µM (inactive); in the assay on NCI-H23, 47 µM (inactive); with HCT-116, 20.2 µM (inactive); in the assay with RXF 393, 6.44 µM (inactive); with SK-MEL-28 it was 35.9 µM (inactive). The GI50 with TK-10 was 16.7 µM (inactive); in the assay on UACC-257, 90.8 µM (inactive); in the assay with OVCAR-8, 36.9 µM (inactive); in the assay on U-251 it was 46.8 µM (inactive).

The values are drawn from ChEMBL document CHEMBL1201862, “PubChem BioAssay data set” (2004).
